Assay results from ChEMBL document CHEMBL3507680, “University of Dundee, Gates Library screen for HepG2 cell viability”.

Test: Human HepG2 cell viability assay in 384 well format
Type: toxicity, cell-based
Design: dose 125 nL, time 70.5 hour; cytotoxicity at 70.5 h: concentration not given beside the values
Settings: HepG2 cells, read-out: Inhibition

SMILES	cytotoxicity at 70.5 h [%]
Cc1cccc2[nH]cc(CC(=O)N3CCC(Nc4cccnn4)CC3)c12	0.978
O=C(Cc1noc2ccccc12)N1CCC(Nc2cccnn2)CC1	-5.81
O=C(Cc1cccc2ccccc12)N1CCC(Nc2cccnn2)CC1	-7.06
CC(=O)Nc1nc(CN(C)C2CCCN(c3cccnn3)C2)cs1 (centres undefined)	-13.5
CN(Cc1cnn(-c2ccccc2)n1)C1CCCN(c2cccnn2)C1 (centres undefined)	-12.2
Cc1nc(C)n(C2CCCN(C(=O)c3c[nH]c(C(C)C)n3)C2)n1 (centres undefined)	-11.1
Cc1nccn1C1CCCN(C(=O)c2cccc(S(C)(=O)=O)c2)C1 (centres undefined)	-11.1
O=C(CCCn1cncn1)N1CCCC1c1noc(C2CC2)n1 (centres undefined)	-3.05
COCCCNC(=O)c1c(C)noc1C(C)C	-11.8
CC(O)(CN1CCN(CCO)CC1)c1cccc(C(F)(F)F)c1 (centres undefined)	14.6
CCc1nccn1C1CCCN(C(=O)c2csc(C3CC3)n2)C1 (centres undefined)	-22
CCN1CCOC(CNCc2csc(C)n2)C1 (centres undefined)	-14.2
Cc1nccn1C1CCCN(C(=O)c2cccc(-n3cccc3)c2)C1 (centres undefined)	11.6
c1cnn(CC2CCCN2Cc2ccc(-n3cccn3)cc2)c1 (centres undefined)	-8.68
CC(Cn1ccnc1)NC(=O)N1CCCN(Cc2cccs2)CC1 (centres undefined)	-14
Cc1nc(C2CCCN2C(=O)CCn2cncn2)no1 (centres undefined)	-3.86
CC1CCN(Cc2ccc(CNC(=O)c3ccn(C)c(=O)c3)cc2)CC1	-9.84
CCOc1ncccc1CNC(=O)Nc1ccc(CC)cc1	-7.83
CN(C)c1ncccc1CNS(=O)(=O)c1ccccc1Cl	-4.36
CC(=O)NC1CCCN(C(=O)NCCOc2ccc3c(c2)OCO3)C1 (centres undefined)	-10.3

SMILES	cytotoxicity at 70.5 h [%]
CC(Cn1ccnc1)NC(=O)N1CCN(Cc2cccs2)CC1 (centres undefined)	13.9
CN(C)c1ncccc1CNS(=O)(=O)c1c(F)cccc1F	-8.75
Cn1ccc(C(=O)NCc2ccc(CN3CCCC3)cc2)cc1=O	-12.4
Cc1nn(C)c(N(C)C)c1CNC(C)COc1ccc(F)cc1 (centres undefined)	-4.85
CC(=O)NCCCC(=O)NC(C)c1nnc2n1CCC2 (centres undefined)	-11.1
CN(C)c1ccc(NC(=O)NCc2cccnc2N(C)C)cn1	-8.32
c1ccc(-n2ccc(CN3CCCC3Cn3cncn3)n2)cc1 (centres undefined)	-3.62
COCc1nc(C(=O)N2CCCC(n3ccnc3)C2)cs1 (centres undefined)	-10
CC(C)c1nc(C2CCCN2C(=O)CCn2cncn2)no1 (centres undefined)	-7.37
CCn1nc2c(cc1=O)CN(CC(=O)Nc1nncs1)CC2	-10.2
CCc1n[nH]c(C2CN(C(=O)c3ccc(Cl)cn3)CCO2)n1 (centres undefined)	-8.84
O=C(c1cccc(F)c1)N1CCCN(Cc2cscn2)CC1	21.5
Cc1cnn(CCNCc2nnc(-c3occc3C)o2)c1	-5.91
CCn1cc(NC(=O)NCc2ccc(CO)c(F)c2)cn1	-7.1
CCn1cc(NC(=O)NCCc2ccc3c(c2)OCO3)cn1	-10.2
COc1c(CNC2CCc3ccccc32)c(C)nn1C (centres undefined)	-10.5
CC(C)CCN(C(=O)c1ccc(-n2ncc(C#N)c2N)cc1)C1CC1	-6.84
COc1ccc(Cl)cc1CC(=O)N1CCN(CC(C)(C)O)CC1	-3.48
CC(C)(C)c1cc(NC(=O)CN2CCC(N3CCNC3=O)CC2)on1	17
O=C(NCCC(=O)N1CCCCCCC1)c1ccoc1	-1.22

SMILES	cytotoxicity at 70.5 h [%]
CC(C)c1nc(CN(C)C2CCN(CCc3ccncc3)C2)no1 (centres undefined)	-2.44
COCc1ccc(C(=O)N2CCCN(Cc3cscn3)CC2)cc1	-6.01
CCc1nc(CN(C)C2CCN(CCCOc3ccccc3)C2)no1 (centres undefined)	9.63
Cc1cnc(CN(C)C2CCN(Cc3nnc(C4CC4)o3)C2)o1 (centres undefined)	-4.32
Cc1cc(C)n(CC2CN(Cc3noc(C4CC4)n3)CCO2)n1 (centres undefined)	-6.69
CCOc1ncccc1C(=O)N1CCCC1c1c(C)nn(C)c1Cl (centres undefined)	11.9
O=C(NCCOCC(F)(F)F)c1ccc(-c2ccco2)[nH]c1=O	-9.67
Cc1cc(C)n(CC2CCCN2C(=O)Cc2c(C)noc2C)n1 (centres undefined)	7.13
CCc1nccn1C1CCCN(C(=O)c2cc3nc(C)ccc3o2)C1 (centres undefined)	-2.05
CCc1nccn1C1CCCN(C(=O)c2cnn(C)c2C2CC2)C1 (centres undefined)	-0.779
CNS(=O)(=O)c1cccc(CNc2cc(C(F)(F)F)ccn2)c1	-0.978
COc1ccc(-n2ccc(C(=O)NCCN3CCCCC3C)n2)cc1 (centres undefined)	7.59
Cc1ccccc1CN1CCCN(C2CCOC2=O)CC1 (centres undefined)	3.44
c1csc(-c2noc(CCCN3CCCC3Cn3cccn3)n2)c1 (centres undefined)	-8.63
O=C(c1ccc2c(c1)CCCC2)N1CCOCC1c1ncon1 (centres undefined)	2.82
COc1cc(CNCc2c(C)nn(C)c2N(C)C)ccc1C	-3.16
Cc1nccn1C1CCCN(C(=O)C2=NN(C)C(=O)CC2)C1 (centres undefined)	9.33
O=C(COCC1CC1)N1CCCC(n2cncn2)C1 (centres undefined)	-9.93
Cc1nc(C)n(C2CCCN(C(=O)c3csnn3)C2)n1 (centres undefined)	-11.1
